In one test the target is full-length human RORγt (Homo sapiens (Human), UniProt P51449). The test is described as follows: RORγt (full-length human) reporter assay, conditions A or B. As to conditions: for IC50: HEK293T cells, read-out: RORγt (FL) Reporter Assay A or B, IC50; for inhibition at 2 µM: 2 μM compound concentration (**); for inhibition at 6 µM: read-out: RORγt (FL) Reporter Assay A or B, % inhibition @ 6 μM, 6 μM compound concentration. The test is classed as cell-based. An outline of the steps:
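HEK293T cells transiently co-transfected (PEI) with GAL4-DBD–RORγt, GAL4-firefly luciferase and CMV-Renilla reporters; condition A 35,000 cells/well, 170.5 ng DNA/well; condition B 8750 cells/well, 42.6 ng DNA/well.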
(In general: A reporter such as luciferase makes a cellular process visible.)

For test [1], the system named is IL-17 production by CD4 T cells. The test is described as follows: Human Th17 assay. The test is classed as cell-based. As to conditions: 72 h, IL-17 in supernatant after 3 days. The text has this:
The human Th17 assay tests the effect of RORγt modulatory compounds on IL-17 production by CD4 T cells under conditions which favor Th17 differentiation. Total CD4^+ T cells were isolated from the peripheral blood mononuclear cells (PBMC) of healthy donors using a CD4^+ T cell isolation kit II, following the manufacturer's instructions (Miltenyi Biotec). Cells were resuspended in a medium of RPMI-1640 supplemented with 10% fetal bovine serum, penicillin, streptomycin, glutamate, and β-mercaptoethanol and were added to 96-well plates at 1.5×10^5 per 100 μL per well. 50 μL of compound at titrated concentrations in DMSO were added into each well at final DMSO concentration at 0.2%. Cells were incubated for 1 hour, then 50 μL of Th17 cell differentiation medium was added to each well. The final concentrations of antibodies and cytokines (R&D Systems) in differentiation medium were: 3×10^6/mL anti-CD3/CD28 beads (prepared using human T cell activation/expansion kit, Miltenyi Biotec), 10 μg/mL anti-IL4, 10 μg/mL anti-IFNγ, 10 ng/mL IL1β, 10 ng/mL IL23, 50 ng/mL IL6, 3 ng/mL TGFβ and 20 U/mL IL2. Cells were cultured at 37° C. and 5% CO2 for 3 days. Supernatants were collected and the accumulated IL-17 in culture was measured by using MULTI-SPOT® Cytokine Plate following manufacture's instruction (Meso Scale Discovery). The plate was read using Sector Imager 6000, and IL-17 concentration was extrapolated from the standard curve. The IC50s were determined by GraphPad.

The mark [2] stands for this setting: 0.67 μM compound concentration (****), read-out: RORγt (FL) Reporter Assay A or B, % inhibition.
[3] abbreviates: 0.22 μM compound concentration (******), read-out: RORγt (FL) Reporter Assay A or B, % inhibition.
Setting [4] is: read-out: RORγt (FL) Reporter Assay A or B, % inhibition.

The structures appear in SMILES notation. Read-outs that look alike come from different tables or passages of the source. Marks after values point to notes of the source that are not given here. A value given as a limit tells only on which side of the number the result lay.

Chain of full-length human RORγt (P51449 other isoform, or with tags, fused parts or gaps): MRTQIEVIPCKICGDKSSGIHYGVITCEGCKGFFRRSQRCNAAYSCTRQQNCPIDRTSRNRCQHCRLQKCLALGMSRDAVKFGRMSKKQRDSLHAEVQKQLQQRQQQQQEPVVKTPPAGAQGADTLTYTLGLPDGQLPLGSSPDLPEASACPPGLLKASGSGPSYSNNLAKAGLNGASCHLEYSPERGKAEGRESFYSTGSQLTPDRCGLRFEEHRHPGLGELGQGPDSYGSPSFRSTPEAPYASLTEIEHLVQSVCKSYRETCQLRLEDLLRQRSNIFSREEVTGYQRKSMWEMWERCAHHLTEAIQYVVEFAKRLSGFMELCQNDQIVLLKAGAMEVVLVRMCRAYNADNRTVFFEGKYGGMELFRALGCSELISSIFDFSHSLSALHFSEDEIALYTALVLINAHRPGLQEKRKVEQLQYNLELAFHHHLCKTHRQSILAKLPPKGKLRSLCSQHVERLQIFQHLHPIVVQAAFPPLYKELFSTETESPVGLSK

Broadly, the IC50 is the point on the concentration scale where inhibition reaches its midpoint. `CCc1nc(C(=O)NC[C@H]2CC[C@H](S(C)(=O)=O)CC2)c(C)n1-c1ccc(CC(C)C(F)(F)F)cc1OC` (single isomer, unassigned) [Example 7]: the results for the IC50 (at full-length human RORγt; in test [1]) were 12 nM and 7 nM, respectively. Moreover, at full-length human RORγt (read-out: RORγt (FL) Reporter Assay A or B, % inhibition, 0.22 μM compound concentration (******)), the inhibition at 0.22 µM was found to be 91%.
For `CCc1nc(C(=O)NC[C@]2(O)CC[C@@H](S(C)(=O)=O)CC2)c(C)n1-c1ccc(CC(C(F)(F)F)C(F)(F)F)cc1F` [Example 109, 2-Ethyl-1-(2-fluoro-4-(3,3,3-trifluoro-2-(trifluoromethyl)propyl)phenyl)-N-(((1s,4s)-1-hydroxy-4-(methylsulfonyl)cyclohexyl)methyl)-5-methyl-1H-imidazole-4-carboxamide], the inhibition at 0.67 µM on full-length human RORγt (setting [2]) was 97%. Moreover, the figures for the IC50 (at full-length human RORγt; in test [1]) were 22 nM and 79 nM, respectively.
As to `CCc1nc(C(=O)NC[C@H]2CC[C@H](S(C)(=O)=O)CC2)c(Cl)n1-c1ccc(CCC(F)(F)F)cc1F` [Example 22, 5-Chloro-2-ethyl-1-(2-fluoro-4-(3,3,3-trifluoropropyl)phenyl)-N-(((1r,4r)-4-(methylsulfonyl)cyclohexyl)methyl)-1H-imidazole-4-carboxamide], at full-length human RORγt (setting [3]), the inhibition at 0.22 µM is 38%. Further, the results for the IC50 (on full-length human RORγt; in test [1]) were 15 nM and 42 nM, respectively.
As for `CCc1nc(C(=O)NC[C@H]2CC[C@H](S(C)(=O)=O)CC2)c(Cl)n1-c1ncc(CC(C)(C)C(F)(F)F)cc1OC(F)F` [Example 2, 5-Chloro-1-(3-(difluoromethoxy)-5-(3,3,3-trifluoro-2,2-dimethylpropyl)pyridin-2-yl)-2-ethyl-N-((4-(methylsulfonyl)cyclohexyl)methyl)-1H-imidazole-4-carboxamide], the inhibition at 1 µM at full-length human RORγt (1 μM compound concentration (***), read-out: RORγt (FL) Reporter Assay A or B, % inhibition) turned out to be 84%. Also, the results for the IC50 (at full-length human RORγt; in test [1]) were 12 nM and 85 nM, respectively.
Take `CCc1nc(C(=O)NC[C@H]2CC[C@H](S(C)(=O)=O)CC2)c(Cl)n1-c1ccc(CC(C)C(F)(F)F)cc1OC` (single isomer, unassigned) [Example 6, 5-Chloro-2-ethyl-1-((1S*)-2-methoxy-4-(3,3,3-trifluoro-2-methylpropyl)phenyl)-N-(((1r,4S)-4-(methylsulfonyl)cyclohexyl)methyl)-1H-imidazole-4-carboxamide]: the “RORγt (FL) Reporter Assay A or B, % inhibition” value at full-length human RORγt (0.67 μM compound concentration (****)) is 99**** %. Also, the figures for the IC50 (at full-length human RORγt; in test [1]) were 6 nM and 2 nM, respectively.
`CCc1nc(C(=O)NC[C@]2(O)CC[C@@H](S(C)(=O)=O)CC2)c(Cl)n1-c1ccc(CC(C(F)(F)F)C(F)(F)F)cc1F` [Example 100, 5-Chloro-2-ethyl-1-(2-fluoro-4-(3,3,3-trifluoro-2-(trifluoromethyl)propyl)phenyl)-N-(((1s,4s)-1-hydroxy-4-(methylsulfonyl)cyclohexyl)methyl)-1H-imidazole-4-carboxamide]: on full-length human RORγt (setting [3]), the inhibition at 0.22 µM is 100%. For the same compound, the half-inhibitory concentration (IC50) at full-length human RORγt was determined as 6.7 nM; in test [1], 58 nM.
On to `CCc1nc(C(=O)NC[C@H]2CC[C@H](S(C)(=O)=O)CC2)c(C#N)n1-c1ccc(CC(C)(C)C(F)(F)F)cc1OC(F)F` [Example 36, 5-Cyano-1-(2-(difluoromethoxy)-4-(3,3,3-trifluoro-2,2-dimethylpropyl)phenyl)-2-ethyl-N-(((1r,4r)-4-(methylsulfonyl)cyclohexyl)methyl)-1H-imidazole-4-carboxamide], for which, on full-length human RORγt (setting [4]), the inhibition at 2 µM turned out to be 101%. In addition, the IC50 at full-length human RORγt worked out at 13 nM; in test [1] it was 8 nM.
`[2H]C([2H])([2H])Oc1cc(CC(C)(C)C(F)(F)F)ccc1-n1c(CC)nc(C(=O)NC[C@H]2CC[C@H](S(C)(=O)=O)CC2)c1C#N` [Example 27, 5-Cyano-2-ethyl-1-(2-(methoxy-d3)-4-(3,3,3-trifluoro-2,2-dimethylpropyl)phenyl)-N-(((1r,4r)-4-(methylsulfonyl)cyclohexyl)methyl)-1H-imidazole-4-carboxamide]: the inhibition at 0.67 µM on full-length human RORγt (setting [2]) is 97%. In addition, the IC50 was found to be 18 nM on full-length human RORγt and 13 nM in test [1].
In the case of `CCc1nc(C(=O)NC[C@H]2CC[C@H](S(C)(=O)=O)CC2)c(F)n1-c1ccc(N[C@H](C)C(F)(F)F)cc1OC` [Example 12, 2-Ethyl-5-fluoro-1-(2-methoxy-4-(((R)-1,1,1-trifluoropropan-2-yl)amino)phenyl)-N-(((1r,4R)-4-(methylsulfonyl)cyclohexyl)methyl)-1H-imidazole-4-carboxamide], on full-length human RORγt, the IC50 was determined as 160 nM and the inhibition at 6 µM came to 109%. For the same compound, half-maximal inhibition in test [1] (IC50) required 220 nM.
`CCc1nc(C(=O)NC[C@]2(O)CC[C@@H](S(C)(=O)=O)CC2)c(Cl)n1-c1c(F)cc(CC(C)C)cc1F` [Example 83, 5-Chloro-1-(2,6-difluoro-4-isobutylphenyl)-2-ethyl-N-(((1s,4s)-1-hydroxy-4-(methylsulfonyl)cyclohexyl)methyl)-1H-imidazole-4-carboxamide]: at full-length human RORγt (setting [4]), the inhibition at 2 µM stood at 23%. The results for the IC50 (on full-length human RORγt; in test [1]) were 120 nM and more than 6000 nM, respectively.
The corresponding values for `CCc1nc(C(=O)NC[C@H]2CC[C@H](S(C)(=O)=O)CC2)c(Cl)n1-c1ccc(N[C@H](C)C(F)(F)F)cc1OC` [Example 3, 5-Chloro-2-ethyl-1-(2-methoxy-4-(((R)-1,1,1-trifluoropropan-2-yl)amino)phenyl)-N-(((1r,4R)-4-(methylsulfonyl)cyclohexyl)methyl)-1H-imidazole-4-carboxamide] are 101%, 36 nM and 31 nM.
For `CCc1nc(C(=O)NC[C@]2(O)CC[C@@H](S(C)(=O)=O)CC2)c(C#N)n1-c1ccc(CC(C)(C)C(F)(F)F)cc1OC(F)(F)F` [Example 111, 5-Cyano-2-ethyl-N-(((1s,4s)-1-hydroxy-4-(methylsulfonyl)cyclohexyl)methyl)-1-(4-(3,3,3-trifluoro-2,2-dimethylpropyl)-2-(trifluoromethoxy)phenyl)-1H-imidazole-4-carboxamide], on full-length human RORγt, the IC50 was found to be 86 nM and the inhibition at 6 µM was 99%. For the same compound, the IC50 in test [1] came to 69 nM.

The values are drawn from US11345666B2, “Phenyl and pyridinyl substituted imidazoles as modulators of RORγT” (Janssen Pharmaceutica NV, priority 2018, dated 2022).
